ChEMBL document CHEMBL2375305, “Synthesis of novel triterpene and N-allylated/N-alkylated niacin hybrids as α-glucosidase inhibitors” (Eur J Med Chem, 2013)
Active and inactive are the calls of the source. The calls are words filed in the database; no cut-off is given here.

Columns and labels:
Homo sapiens [1] = species on record: Homo sapiens; assay: (§1) Inhibition of alpha-glucosidase (unknown origin) using PNPG as substrate incubated for 10 mins prior to substrate addition measured every 30 secs for 5 mins relative to control
Homo sapiens [2] = species on record: Homo sapiens; assay: Inhibition of alpha-glucosidase (unknown origin) using PNPG as substrate at 100 uM incubated for 10 mins prior to substrate addition measured every 30 secs for 5 mins relative to control
Rattus norvegicus = assay: Antihyperglycemic activity in sucrose-loaded STZ-induced diabetic rat model assessed as reduction in blood glucose level at 100 mg/kg, po administered 30 mins followed by sucrose administration measured after 5 hrs relative to vehicle-treated control; format: functional; design: scale not given: the % may be the effect or the level left
Homo sapiens [3] = species on record: Homo sapiens; assay: Ratio of compound activity to acarbose activity for inhibition of alpha-glucosidase (unknown origin)
Homo sapiens [4] = species on record: Homo sapiens; assay: Binding affinity to alpha-glucosidase (unknown origin) assessed as loss in secondary structure at 50 to 250 uM measured every 1 sec for 1 to 2 mins by CD spectroscopic analysis
[5] = as §1; design: species or system Homo sapiens
Homo sapiens [6] = species on record: Homo sapiens; assay: Non-competitive inhibition of alpha-glucosidase (unknown origin) using PNPG as substrate at 2 to 6 uM by Lineweaver-Burk plot analysis

SMILES | inhibition (Homo sapiens [1]) | inhibition (Homo sapiens [2]) [%] | other results
CC(C)=CC[n+]1cccc(C(=O)O[C@H]2CC[C@]3(C)[C@H]4CC=C5[C@@H]6[C@@H](C)[C@H](C)CC[C@]6(C)CC[C@@]5(C)[C@]4(C)CC[C@H]3C2(C)C)c1.[Br-] | Dose-dependent effect |  | Activity (Rattus norvegicus): 19.9%; Ratio (Homo sapiens [3]): 10; Activity (Homo sapiens [4]): Active; IC50 [5]: 5 µM; inhibition (Homo sapiens [6]): Active
C=C(C)[C@@H]1CC[C@]2(C)CC[C@]3(C)[C@@H](CC[C@@H]4[C@@]5(C)CC[C@H](OC(=O)c6ccc[n+](C/C=C(\C)CCC=C(C)C)c6)C(C)(C)[C@@H]5CC[C@]43C)[C@H]12 |  | 3.8 | 
C=C(C)[C@@H]1CC[C@]2(C)CC[C@]3(C)[C@@H](CC[C@@H]4[C@@]5(C)CC[C@H](OC(=O)c6ccc[n+](CCCCCCCCCCCCCCCC)c6)C(C)(C)[C@@H]5CC[C@]43C)[C@H]12 |  | 4.5 | 
C=C(C)[C@@H]1CC[C@]2(C)CC[C@]3(C)[C@@H](CC[C@@H]4[C@@]5(C)CC[C@H](OC(=O)c6ccc[n+](CC=C(C)C)c6)C(C)(C)[C@@H]5CC[C@]43C)[C@H]12 |  | -4.4 | 

The next lines start with results.

inhibition (Homo sapiens [1]) | inhibition (Homo sapiens [2]) [%] | SMILES | other results
Dose-dependent effect |  | CCCCCCCCCCCCCCCC[n+]1cccc(C(=O)O[C@H]2CC[C@]3(C)[C@H]4CC=C5[C@@H]6[C@@H](C)[C@H](C)CC[C@]6(C)CC[C@@]5(C)[C@]4(C)CC[C@H]3C2(C)C)c1 | 
 | 8.8 | C=C(C)[C@@H]1CCC2(C)CC[C@]3(C)[C@@H](CC[C@@H]4[C@@]5(C)CC[C@H](OC(=O)c6ccc[n+](CCCCCCCCCCCC)c6)C(C)(C)[C@@H]5CC[C@]43C)[C@H]12 (single isomer, unassigned) | 
Dose-dependent effect |  | CCCCCCCCCCCCC[n+]1cccc(C(=O)O[C@H]2CC[C@]3(C)[C@H]4CC=C5[C@@H]6[C@@H](C)[C@H](C)CC[C@]6(C)CC[C@@]5(C)[C@]4(C)CC[C@H]3C2(C)C)c1 | 
Dose-dependent effect |  | CCCCCCCCCCCC[n+]1cccc(C(=O)O[C@H]2CC[C@]3(C)[C@H]4CC=C5[C@@H]6[C@@H](C)[C@H](C)CC[C@]6(C)CC[C@@]5(C)[C@]4(C)CC[C@H]3C2(C)C)c1 | 
